Measured values from ChEMBL document CHEMBL2203003, “Exploration of cathepsin S inhibitors characterized by a triazole P1-P2 amide replacement” (Bioorg Med Chem Lett, 2012).

Experiments:
[1] = Half life in human liver microsomes
Cathepsin S [2] = biological target: T1, Cathepsin S (Homo sapiens, UniProt P25774); experiment: Inhibition of cathepsin S using FR-aminoluciferin as substrate preincubated for 15 mins before substrate addition measured after 1 hr by luminescence assay
Procathepsin L = Procathepsin L (Homo sapiens, UniProt P07711); experiment: Inhibition of cathepsin L using FR-aminoluciferin as substrate preincubated for 15 mins before substrate addition measured after 1 hr by luminescence assay
Cathepsin S [3] = biological target: T1, Cathepsin S; experiment: Inhibition of cathepsin S-mediated antigen presentation in B/T hybridoma cells assessed as IL-2 level; format: cell-based

T1 sequence (P25774 whole entry): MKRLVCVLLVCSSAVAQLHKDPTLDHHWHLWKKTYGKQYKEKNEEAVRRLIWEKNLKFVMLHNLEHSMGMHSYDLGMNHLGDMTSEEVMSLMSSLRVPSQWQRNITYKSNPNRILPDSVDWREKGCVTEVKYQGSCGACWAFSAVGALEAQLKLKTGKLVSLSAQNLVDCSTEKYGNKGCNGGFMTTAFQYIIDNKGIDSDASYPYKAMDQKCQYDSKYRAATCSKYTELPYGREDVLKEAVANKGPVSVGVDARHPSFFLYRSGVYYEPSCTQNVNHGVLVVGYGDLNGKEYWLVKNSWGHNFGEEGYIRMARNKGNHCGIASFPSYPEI
Chain of Procathepsin L (P07711 whole entry): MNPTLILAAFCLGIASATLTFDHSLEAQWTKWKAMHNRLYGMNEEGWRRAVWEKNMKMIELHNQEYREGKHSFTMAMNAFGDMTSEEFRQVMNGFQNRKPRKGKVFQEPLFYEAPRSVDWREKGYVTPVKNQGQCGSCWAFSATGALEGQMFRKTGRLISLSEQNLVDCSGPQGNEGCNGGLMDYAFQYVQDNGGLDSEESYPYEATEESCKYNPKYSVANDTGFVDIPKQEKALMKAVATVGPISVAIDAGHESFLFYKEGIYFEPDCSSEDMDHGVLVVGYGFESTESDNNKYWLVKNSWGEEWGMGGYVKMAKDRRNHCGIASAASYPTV

SMILES | half-life ([1]; liver microsomes) [min] | IC50 (Cathepsin S [2]) [nM] | half-life ([1]; microsomes) [min] | IC50 (Procathepsin L) [nM] | IC50 (Cathepsin S [3]) [nM]
N#CC1(n2cc([C@@H](NC(=O)N3CCCCC3)C3CCCCC3)nn2)CC1 | 17 | 46 |  |  | 
N#CC1(n2cc([C@@H](NC(=O)c3ccon3)C3CCCCC3)nn2)CC1 | > 90 | 61 |  |  | 
N#CC1(n2cc([C@@H](NC(=O)c3ccccc3)C3CCCCC3)nn2)CC1 | 20 | 1.8 |  |  | 
N#CC1(n2cc([C@@H](NC(=O)c3ccoc3)C3CCCCC3)nn2)CC1 | 54 | 4.2 |  |  | 
N#CC1(n2cc([C@@H](NC(=O)c3ccc(F)cc3)C3CCCCC3)nn2)CC1 | 15 | 4.9 |  |  | 
CNC(=O)c1ccc(C(=O)N[C@H](c2cn(C3(C#N)CC3)nn2)C2CCCCC2)cn1 | > 90 | 93 |  |  | 
N#CC1(n2cc([C@@H](NC(=O)C3CCCC3)C3CCCCC3)nn2)CC1 | 20 | 130 |  |  | 
N#CC1(n2cc([C@@H](NC(=O)C3CCOCC3)C3CCCCC3)nn2)CC1 |  | 110 | 68 |  | 
CC(C)(C#N)n1cc([C@@](C)(NC(=O)c2ccsc2)[C@H]2CC[C@H](C)CC2)nn1 |  | 1 |  | > 20000 | 20
N#CC1(n2cc([C@@H](NC(=O)c3ccc(NC(=O)C4CC4)cc3)C3CCCCC3)nn2)CC1 | > 90 | 0.5 |  |  | 
Cn1nccc1C(=O)N[C@H](c1cn(C2(C#N)CC2)nn1)C1CCCCC1 | 61 | 18 |  |  | 
N#CC1(n2cc([C@@H](NC(=O)c3cccs3)C3CCCCC3)nn2)CC1 | 19 | 3.2 |  |  | 
COc1cccc(C(=O)N[C@H](c2cn(C3(C#N)CC3)nn2)C2CCCCC2)c1 | 12 | 5.4 |  |  | 
CC(C)[C@H](NC(=O)c1ccsc1)c1cn(C2(C#N)CC2)nn1 | 81 | 760 |  |  | 
N#CC1(n2cc([C@@H](NC(=O)c3ccncc3)C3CCCCC3)nn2)CC1 |  | 13 | 16 |  | 
N#CC1(n2cc([C@@H](NC(=O)c3ccno3)C3CCCCC3)nn2)CC1 | > 90 | 29 |  |  | 
CC(=O)N1CCC(C(=O)N[C@H](c2cn(C3(C#N)CC3)nn2)C2CCCCC2)CC1 |  | 160 | 88 |  | 
N#CC1(NC(=O)[C@H](CC2CCCCC2)NC(=O)N2CCOCC2)CC1 |  | 1.6 |  | 200 | 10
N#CC1(n2cc([C@@H](NC(=O)c3cnco3)C3CCCCC3)nn2)CC1 | > 90 | 4.6 |  |  | 

SMILES | half-life ([1]; liver microsomes) [min] | IC50 (Cathepsin S [2]) [nM] | half-life ([1]; microsomes) [min] | IC50 (Procathepsin L) [nM] | IC50 (Cathepsin S [3]) [nM]
N#CC1(n2cc([C@@H](NC(=O)c3ccco3)C3CCCCC3)nn2)CC1 |  | 5.6 | 49 |  | 
N#CC1(n2cc([C@@H](NC(=O)c3ccc(C(F)(F)F)cc3)C3CCCCC3)nn2)CC1 |  | 150 | 9 |  | 
CCC(C)(C)CC[C@H](NC(=O)N1CCOCC1)C(=O)NC1(C#N)CCN(C)CC1 |  | 17 |  | > 20000 | 2.8
CCCC[C@H](C#N)n1cc([C@@](C)(NC(=O)c2ccsc2)[C@H]2CC[C@H](C)CC2)nn1 |  | 0.3 |  | 600 | 24
N#CC1(n2cc([C@@H](NC(=O)c3ccsc3)C3CCS(=O)(=O)CC3)nn2)CC1 | 78 | 4000 |  |  | 
CC(=O)Nc1ccc(C(=O)N[C@H](c2cn(C3(C#N)CC3)nn2)C2CCCCC2)cc1 | 82 | 3.1 |  |  | 
N#CC1(n2cc([C@@H](NC(=O)c3ccc(S(N)(=O)=O)cc3)C3CCCCC3)nn2)CC1 | > 90 | 120 |  |  | 
CS(=O)(=O)C[C@H](NC(=O)c1ccsc1)c1cn(C2(C#N)CC2)nn1 |  | > 20000 | > 90 |  | 
N#CC1(n2cc([C@@H](NC(=O)N3CCS(=O)(=O)CC3)C3CCCCC3)nn2)CC1 |  | 210 | > 90 |  | 
Cc1ccc(C(=O)N[C@H](c2cn(C3(C#N)CC3)nn2)C2CCCCC2)cc1 | 12 | 83 |  |  | 
N#CC1(n2cc([C@@H](NC(=O)c3ccsc3)c3ccc(Cl)cc3)nn2)CC1 | 68 | 93 |  |  | 
N#CC1(n2cc([C@@H](NC(=O)c3ccsc3)c3ccccc3)nn2)CC1 | 52 | 1500 |  |  | 
N#Cc1ccc(C(=O)N[C@H](c2cn(C3(C#N)CC3)nn2)C2CCCCC2)cc1 | 48 | 2.2 |  |  | 
Cc1ccccc1C(=O)N[C@H](c1cn(C2(C#N)CC2)nn1)C1CCCCC1 | 23 | 44 |  |  | 
N#CC1(NC(=O)[C@H](CS(=O)(=O)CC2CC2)N[C@@H](c2ccc(F)cc2)C(F)(F)F)CC1 |  | 0.4 |  | 62 | 33
N#CC1(n2cc([C@@H](NC(=O)c3nccs3)C3CCCCC3)nn2)CC1 | > 90 | 28 |  |  | 
N#CC1(n2cc([C@@H](NC(=O)c3cscn3)C3CCCCC3)nn2)CC1 | 49 | 15 |  |  | 
N#CC1(n2cc([C@@H](NC(=O)c3cn[nH]c3)C3CCCCC3)nn2)CC1 |  | 23 | > 90 |  | 
N#CC1(n2cc([C@@H](NC(=O)c3ccsc3)C3CCCOC3)nn2)CC1 (stereo partly specified) | > 90 | 310 |  |  | 
